Source: patent US8906909B2 (Curis, Inc., priority 2009, dated 2014)

Assays:
[1] = test system: HDACs (HeLa cell nuclear extracts); assay: HDAC enzymatic activity, Biomol Color de Lys system; format: biochemical
Protocol: (e) An In Vitro Assay which Determines the Ability of a Test Compound to Inhibit HDAC Enzymatic Activity.
HDAC inhibitory activity was assessed using the Biomol Color de Lys system (AK-500, Biomol, Plymouth Meeting, Pa.). Briefly, HeLa cell nuclear extracts were used as a source of HDACs. Different concentrations of test compounds were serially diluted in dimethylsulphoxide (DMSO) and added to HeLa cell nuclear extracts in the presence of a colorimetric artificial substrate. Final assay condition contained 50 mM Tris/Cl, pH 8.0, 137 mM NaCl, 2.7 mM KCl and 1 mM MgCl2. Reactions were carried in room temperature (25° C.) for 1 hour before addition of developer for termination. Relative enzyme activity was measured in the WALLAC Victor II 1420 microplate reader as floorescence intensity (excitation: 350-380 nm; emission: 440-460 nm). Data were analyzed using GraphPad Prism (v4.0a) with a sigmoidal dose response curve fitting for IC50 calculation.

Compound	IC50 [1] [µM]	melting point [°C]
CN(Cc1cc2nc(-c3cccc4[nH]ncc34)nc(N3CCOCC3)c2s1)CC1CCN(c2ncc(C(=O)NO)cn2)CC1 [Compound 16, 2-(4-((((2-(1H-indazol-4-yl)-4-morpholinothieno[3,2-d]pyrimidin-6-yl)methyl)(methyl)amino)methyl)piperidin-1-yl)-N-hydroxypyrimidine-5-carboxamide]	0.1 to 1	174 to 175
CN(Cc1cc2nc(-c3cnc(CN)nc3)nc(N3CCOCC3)c2s1)c1ncc(C(=O)NO)cn1 [Compound 124, 2-(((2-(2-(aminomethyl)pyrimidin-5-yl)-4-morpholinothieno[3,2-d]pyrimidin-6-yl)methyl)(methyl)amino)-N-hydroxypyrimidine-5-carboxamide]	< 0.1	> 300
CN(Cc1cc2nc(-c3cncnc3)nc(N3CCOCC3)c2s1)c1ncc(C(=O)NO)cn1 [Compound 119, N-hydroxy-2-(methyl((4-morpholino-2-(pyrimidin-5-yl)thieno[3,2-d]pyrimidin-6-yl)methyl)amino)pyrimidine-5-carboxamide]	< 0.1	159 to 160
CN(Cc1cc2nc(-c3cccc4[nH]ncc34)nc(Nc3ccccn3)c2s1)c1ncc(C(=O)NO)cn1 [Compound 168, 2-(((2-(1H-indazol-4-yl)-4-(pyridin-2-ylamino)thieno[3,2-d]pyrimidin-6-yl)methyl)(methyl)amino)-N-hydroxypyrimidine-5-carboxamide]	< 0.1	200 to 203
COc1ccc(-c2nc(N3CCOCC3)c3sc(C(C)(C)N(C)c4ncc(C(=O)NO)cn4)cc3n2)cn1 [Compound 251, N-Hydroxy-2-((2-(2-(6-methoxypyridin-3-yl)-4-morpholinothieno[3,2-d]pyrimidin-6-yl)propan-2-yl)(methyl)amino)pyrimidine-5-carboxamide]	< 0.1	175 to 178
CCCN(Cc1cc2nc(-c3cccc4[nH]ncc34)nc(N3CCOCC3)c2s1)c1ncc(C(=O)NO)cn1 [Compound 84, 2-(((2-(1H-indazol-4-yl)-4-morpholinothieno[3,2-d]pyrimidin-6-yl)methyl)(propyl)amino)-N-hydroxypyrimidine-5-carboxamide]	< 0.1	224 to 226
CS(=O)(=O)N1CCN(Cc2cc3nc(-c4cccc5nn(CCCCCC(=O)NO)cc45)nc(N4CCOCC4)c3s2)CC1 [Compound 8, N-hydroxy-6-(4-(6-((4-(methylsulfonyl)piperazin-1-yl)methyl)-4-morpholinothieno[3,2-d]pyrimidin-2-yl)-2H-indazol-2-yl)hexanamide]	< 0.1	124 to 125
CNc1ccc(-c2nc(N3CCOCC3)c3sc(C(C)(C)Nc4ncc(C(=O)NO)cn4)cc3n2)cn1 [Compound 240, N-Hydroxy-2-(2-(2-(6-(methylamino)pyridin-3-yl)-4-morpholinothieno[3,2-d]pyrimidin-6-yl)propan-2-ylamino)pyrimidine-5-carboxamide]	< 0.1	200 to 205
COc1ncc(-c2nc(N3CCOCC3)c3sc(C(C)(C)Nc4ncc(C(=O)NO)cn4)cc3n2)cn1 [Compound 263, N-Hydroxy-2-(2-(2-(2-methoxypyrimidin-5-yl)-4-morpholinothieno[3,2-d]pyrimidin-6-yl)propan-2-ylamino)pyrimidine-5-carboxamide]	< 0.1	202 to 207
CNc1ncc(-c2nc(N3CCOCC3)c3sc(NCCCCC(=O)NO)cc3n2)cn1 [Compound 227, N-Hydroxy-5-(2-(2-(methylamino)pyrimidin-5-yl)-4-morpholinothieno[3,2-d]pyrimidin-6-ylamino)pentanamide]	< 0.1	206 to 210
CN(Cc1cc2nc(-c3ccc4[nH]c(=O)[nH]c4c3)nc(N3CCOCC3)c2s1)c1ncc(C(=O)NO)cn1 [Compound 186, N-hydroxy-2-(methyl((4-morpholino-2-(2-oxo-2,3-dihydro-1H-benzo[d]imidazol-5-yl)thieno[3,2-d]pyrimidin-6-yl)methyl)amino)pyrimidine-5-carboxamide]	< 0.1	272 to 275
CN(Cc1cc2nc(-c3ccc4[nH]cnc4c3)nc(N3CCOCC3)c2s1)c1ncc(C(=O)NO)cn1 [Compound 187, 2-(((2-(1H-benzo[d]imidazol-5-yl)-4-morpholinothieno[3,2-d]pyrimidin-6-yl)methyl)(methyl)amino)-N-hydroxypyrimidine-5-carboxamide]	< 0.1	231 to 239
CN(Cc1cc2nc(-c3cn[nH]c3)nc(N3CCOCC3)c2s1)c1ncc(C(=O)NO)cn1 [Compound 196, N-hydroxy-2-(methyl((4-morpholino-2-(1H-pyrazol-4-yl)thieno[3,2-d]pyrimidin-6-yl)methyl)amino)pyrimidine-5-carboxamide]	< 0.1	214 to 217
CS(=O)(=O)N1CCN(Cc2cc3nc(-c4cccc5[nH]ncc45)nc(N4CCN(CCCCC(=O)NO)CC4)c3s2)CC1 [Compound 30, 5-(4-(2-(1H-indazol-4-yl)-6-((4-(methylsulfonyl)piperazin-1-yl)methyl)thieno[3,2-d]pyrimidin-4-yl)piperazin-1-yl)-N-hydroxypentanamide]	0.1 to 1	142 to 145
CN(CCCC(=O)NO)Cc1cc2nc(-c3cccc4[nH]ncc34)nc(N3CCOCC3)c2s1 [Compound 101, 4-(((2-(1H-indazol-4-yl)-4-morpholinothieno[3,2-d]pyrimidin-6-yl)methyl)(methyl)amino)-N-hydroxybutanamide]	> 10	115 to 118
CN(Cc1cc2nc(-c3cnn(C)c3)nc(N3CCOCC3)c2s1)c1ncc(C(=O)NO)cn1 [Compound 246, N-Hydroxy-2-(methyl((2-(1-methyl-1H-pyrazol-4-yl)-4-morpholinothieno[3,2-d]pyrimidin-6-yl)methyl)amino)pyrimidine-5-carboxamide]	< 0.1	164 to 169
CN(Cc1cc2nc(-c3ccc(N)c([N+](=O)[O-])c3)nc(N3CCOCC3)c2s1)c1ncc(C(=O)NO)cn1 [Compound 278, 2-(((2-(4-Amino-3-nitrophenyl)-4-morpholinothieno[3,2-d]pyrimidin-6-yl)methyl)(methyl)amino)-N-hydroxypyrimidine-5-carboxamide]	< 0.1	202 to 206
CN(Cc1cc2nc(-c3cccc4c3CCN4)nc(N3CCOCC3)c2s1)c1ncc(C(=O)NO)cn1 [Compound 177, N-hydroxy-2-(((2-(indolin-4-yl)-4-morpholinothieno[3,2-d]pyrimidin-6-yl)methyl)(methyl)amino)pyrimidine-5-carboxamide]	< 0.1	146 to 156
Cc1ccc(-c2nc(N3CCOCC3)c3sc(CN(C)c4ncc(C(=O)NO)cn4)cc3n2)cc1 [Compound 201, N-hydroxy-2-(methyl((4-morpholino-2-p-tolylthieno[3,2-d]pyrimidin-6-yl)methyl)amino)pyrimidine-5-carboxamide]	< 0.1	170 to 172
Nc1ncc(-c2nc(N3CCOCC3)c3sc(NCCCCCC(=O)NO)cc3n2)cn1 [Compound 232, 6-[2-(2-Amino-pyrimidin-5-yl)-4-morpholin-4-yl-thieno[3,2-d]pyrimidin-6-ylamino]-hexanoic acid hydroxyamide]	< 0.1	220 to 225
O=C(NO)c1cnc(N2CCC(CNCc3cc4nc(-c5cccc6[nH]ncc56)nc(N5CCOCC5)c4s3)CC2)nc1 [Compound 15, 2-(4-(((2-(1H-indazol-4-yl)-4-morpholinothieno[3,2-d]pyrimidin-6-yl)methylamino)methyl)piperidin-1-yl)-N-hydroxypyrimidine-5-carboxamide]	< 0.1	170 to 172
COc1ccc(-c2nc(N3CCOCC3)c3sc(S(=O)(=O)Nc4ncc(C(=O)NO)cn4)cc3n2)cn1 [Compound 252, 2-[2-(6-Methoxy-pyridin-3-yl)-4-morpholin-4-yl-thieno[3,2-d]pyrimidine-6-sulfonylamino]-pyrimidine-5-carboxylic acid hydroxyamide]	< 0.1	259 to 265
CN(Cc1cc2nc(-c3ccccc3)nc(N3CCOCC3)c2s1)c1ncc(C(=O)NO)cn1 [Compound 129, N-hydroxy-2-(methyl((4-morpholino-2-phenylthieno[3,2-d]pyrimidin-6-yl)methyl)amino)pyrimidine-5-carboxamide]	< 0.1	199 to 200
CC(=O)Nc1ccc(-c2nc(N3CCOCC3)c3sc(CN(C)c4ncc(C(=O)NO)cn4)cc3n2)cn1 [Compound 112, 2-(((2-(6-acetamidopyridin-3-yl)-4-morpholinothieno[3,2-d]pyrimidin-6-yl)methyl)(methyl)amino)-N-hydroxypyrimidine-5-carboxamide]	< 0.1	197 to 201
O=C(CCCCCCN1CCN(Cc2cc3nc(-c4cccc5[nH]ncc45)nc(N4CCOCC4)c3s2)CC1)NO [Compound 13, 7-(4-((2-(1H-indazol-4-yl)-4-morpholinothieno[3,2-d]pyrimidin-6-yl)methyl)piperazin-1-yl)-N-hydroxyheptanamide]	0.1 to 1	119 to 122
